Reference: patent publication US9453062B2, “Glucose dependent insulinotropic polypeptide analogs, pharmaceutical compositions and use thereof” (Beijing Hanmi Pharmaceutical Co., Ltd., priority 2011, dated 2016)
pEC50: −log10 of the molar value. Like-named read-outs stand apart in the source and are kept apart here. Where a SMILES comes first, the peptide text is derived from it. Bridges are numbered along the chain shown (N, C = ends). [ ]: non-standard residue; d: D form. The star is where a group is joined. Palmitoyl = CCCCCCCCCCCCCCCC(=O)*; Aib = CC(C)(N)C(=O)O

Columns and labels:
[1] = target: T1, hGLP-1R (Homo sapiens, UniProt P43220); assay: hGLP-1R-mediated cAMP induction assay in CHO cell line; format: cell-based; details: for GLP-1 Receptor Relative Potency / GLP-1R Relative Potency: against native GLP-1;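 as to all read-outs here: CHO cells expressing human GLP-1R, treated 30 min at 37 °C, intracellular cAMP measured by competitive fluorescent immunoassay and converted via a cAMP standard curve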
T1 construct: expressed in transfected cells; host or cells: CHO
Source text: (§1) The cAMP in the sample or standard competes with horseradish peroxidase (HRP)-labeled cAMP conjugate for binding sites on the anti-cAMP antibodies. In the absence of cAMP, most of the HRP-cAMP conjugate is bound to the antibody. Increasing concentrations of cAMP competitively decrease the amount of bound conjugate, thus decreasing measured HRP activity.
(§2) Assay kit: CatchPoint™ Cyclic-AMP Fluorescent Assay Kit (Molecular Devices, Product # R8088)
Cell lines: CHO hGLP1R, CHO hGIPR
(§3) Cell seeding: CHO hGLP1R or CHO hGIPR cells: 10,000 cells/well/100 uL at 37° C. 5% CO2 overnight.
(§4) Gently aspirate off media and wash the cells with KRBG Buffer, 100 uL/well.
(§5) Incubate the plate for 10 min at room temperature. Then add the KRBG buffer with 3× final concentration of the tested samples (5-foled series diluted from 5,000 nM), 50 uL/well. Incubate the plate at 37° C. 5% CO2 for 30 min.
(§6) Add 50 uL of Lysis buffer to each well and put the plate on a shaker for 10 min.
(§7) Place 40 uL of samples and analyze in appropriate wells. And test the cAMP concentration in each sample by following the manufacture's instruction.
(§8) Detect the fluorescence signal at Ex: 490 nm and Em: 530 nm. Transfer the FI signal to cAMP concentration by the cAMP standard curve. The Dose-response curve and EC50 were obtained by logistic fitting of Origin 8.

[2] = target: T2, hGIPR (Homo sapiens, UniProt P48546); assay: hGIPR-mediated cAMP induction assay in CHO cell line; format: cell-based; details: for GIP Receptor Relative Potency / GIPR Relative Potency: against native GIP
T2 construct: expressed in transfected cells; host or cells: CHO
T2 sequence (P48546 22-466): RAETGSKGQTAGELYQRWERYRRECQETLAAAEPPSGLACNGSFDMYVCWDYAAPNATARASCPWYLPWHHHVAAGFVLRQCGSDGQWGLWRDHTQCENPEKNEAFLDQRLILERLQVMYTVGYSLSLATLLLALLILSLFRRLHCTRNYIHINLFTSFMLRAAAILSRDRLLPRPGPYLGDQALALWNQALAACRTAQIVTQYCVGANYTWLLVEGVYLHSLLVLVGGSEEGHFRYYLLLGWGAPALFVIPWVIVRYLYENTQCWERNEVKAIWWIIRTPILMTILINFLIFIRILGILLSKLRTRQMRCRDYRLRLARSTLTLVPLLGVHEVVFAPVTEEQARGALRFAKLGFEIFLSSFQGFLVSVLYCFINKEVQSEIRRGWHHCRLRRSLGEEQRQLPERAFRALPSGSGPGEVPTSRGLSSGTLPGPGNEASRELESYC
Source text: as §1, §2
Cell lines: CHO hGLP1R, CHO hGIPR
as §3, §4, §5, §6, §7, §8

[3] = Table 1, CHO/hGLP-1R cells, read-out: GLP-1R EC50
[4] = Table 1, CHO/hGIPR cells, read-out: GIPR EC50

T1 sequence (P43220 24-463): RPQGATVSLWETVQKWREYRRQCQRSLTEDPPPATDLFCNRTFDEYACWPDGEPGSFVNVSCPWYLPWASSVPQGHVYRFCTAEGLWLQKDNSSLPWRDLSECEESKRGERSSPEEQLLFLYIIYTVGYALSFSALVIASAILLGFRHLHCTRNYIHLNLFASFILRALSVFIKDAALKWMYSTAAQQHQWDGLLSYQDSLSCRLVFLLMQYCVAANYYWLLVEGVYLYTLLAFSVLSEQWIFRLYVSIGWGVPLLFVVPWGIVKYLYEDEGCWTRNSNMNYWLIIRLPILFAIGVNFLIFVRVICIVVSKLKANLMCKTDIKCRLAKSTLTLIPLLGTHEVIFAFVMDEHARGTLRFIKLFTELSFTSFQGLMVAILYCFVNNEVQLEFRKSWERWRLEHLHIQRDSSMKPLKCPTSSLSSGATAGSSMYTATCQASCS

Structure (SMILES) | GIP Receptor Relative Potency ([2]; Table 3) | pEC50 [1, 3] | GLP-1R Relative Potency ([1]; Table 1) [%] | pEC50 [2, 4] | GIPR Relative Potency ([2]; Table 1) [%] | pEC50 ([1]; Table 3, CHO hGLP1R cells) | GLP-1 Receptor Relative Potency ([1]; Table 3) | pEC50 ([2]; Table 3, CHO hGIPR cells)
CCCCCCCCCCCCCCCC(=O)NCCCC[C@H](NC(=O)[C@H](CO)NC(=O)[C@@H]1CCCN1C(=O)[C@@H]1CCCN1C(=O)[C@@H]1CCCN1C(=O)[C@H](C)NC(=O)CNC(=O)[C@H](CO)NC(=O)[C@H](CO)NC(=O)[C@@H]1CCCN1C(=O)CNC(=O)CNC(=O)[C@H](CCCCN)NC(=O)[C@@H](NC(=O)[C@H](CC(C)C)NC(=O)[C@H](Cc1c[nH]c2ccccc12)NC(=O)[C@H](C)NC(=O)[C@@H](NC(=O)[C@H](Cc1ccccc1)NC(=O)[C@H](CCC(=O)O)NC(=O)[C@H](CCCNC(=N)N)NC(=O)[C@@H](NC(=O)[C@H](C)NC(=O)[C@H](CCC(=O)O)NC(=O)[C@H](CCCCN)NC(=O)[C@H](CCC(=O)O)NC(=O)[C@H](CCSC)NC(=O)[C@H](Cc1ccc(O)cc1)NC(=O)[C@@H](NC(=O)[C@H](CO)NC(=O)[C@H](Cc1ccc(O)cc1)NC(=O)[C@H](CC(=O)O)NC(=O)[C@H](CO)NC(=O)[C@@H](NC(=O)[C@H](Cc1ccccc1)NC(=O)[C@@H](NC(=O)CNC(=O)[C@H](CCC(=O)O)NC(=O)C(C)(C)NC(=O)[C@@H](N)Cc1ccc(O)cc1)[C@@H](C)O)[C@@H](C)O)[C@@H](C)CC)C(C)C)[C@@H](C)CC)C(C)C)C(N)=O [Compound 068] | 38.9 | – | – | – | – | 9.77 | 566 | 10.43
CCCCCCCCCCCCCCCC(=O)NCCCC[C@H](NC(=O)[C@H](CO)NC(=O)[C@@H]1CCCN1C(=O)[C@@H]1CCCN1C(=O)[C@@H]1CCCN1C(=O)[C@H](C)NC(=O)CNC(=O)[C@H](CO)NC(=O)[C@H](CO)NC(=O)[C@@H]1CCCN1C(=O)CNC(=O)CNC(=O)[C@@H]1CCCCNC(=O)CC[C@H](NC(=O)[C@@H](NC(=O)[C@H](Cc2ccccc2)NC(=O)[C@H](CCC(=O)O)NC(=O)[C@H](CCCCN)NC(=O)[C@@H](NC(=O)[C@H](C)NC(=O)[C@H](CCC(=O)O)NC(=O)[C@H](CCCCN)NC(=O)[C@H](CCC(=O)O)NC(=O)[C@H](CCSC)NC(=O)[C@H](Cc2ccc(O)cc2)NC(=O)[C@@H](NC(=O)[C@H](CO)NC(=O)[C@H](Cc2ccc(O)cc2)NC(=O)[C@H](CC(=O)O)NC(=O)[C@H](CO)NC(=O)[C@@H](NC(=O)[C@H](Cc2ccccc2)NC(=O)[C@@H](NC(=O)CNC(=O)[C@H](CCC(=O)O)NC(=O)C(C)(C)NC(=O)[C@@H](N)Cc2ccc(O)cc2)[C@@H](C)O)[C@@H](C)O)[C@@H](C)CC)C(C)C)[C@@H](C)CC)C(=O)N[C@@H](Cc2c[nH]c3ccccc23)C(=O)N[C@@H](CC(C)C)C(=O)N[C@@H](C(C)C)C(=O)N1)C(N)=O [Compound 102] (H-Y[Aib]EGTFTSDYSIYMEKEAVKEFIEWLVKGGPSSGAPPPSK(Palmitoyl)-NH2; lactam 24-28; N-terminus assumed) | 460 | – | – | – | – | 10.16 | 510.1 | 10.82
CC[C@H](C)[C@H](NC(=O)[C@H](Cc1ccccc1)NC(=O)[C@H](CCC(=O)O)NC(=O)[C@H](CCCNC(=N)N)NC(=O)[C@@H](NC(=O)[C@H](C)NC(=O)[C@H](CCC(=O)O)NC(=O)[C@H](CCCCN)NC(=O)[C@H](CCC(=O)O)NC(=O)[C@H](CCSC)NC(=O)[C@H](Cc1ccc(O)cc1)NC(=O)[C@@H](NC(=O)[C@H](CO)NC(=O)[C@H](Cc1ccc(O)cc1)NC(=O)[C@H](CC(=O)O)NC(=O)[C@H](CO)NC(=O)[C@@H](NC(=O)[C@H](Cc1ccccc1)NC(=O)[C@@H](NC(=O)CNC(=O)[C@H](CCC(=O)O)NC(=O)C(C)(C)NC(=O)[C@@H](N)Cc1ccc(O)cc1)[C@@H](C)O)[C@@H](C)O)[C@@H](C)CC)C(C)C)C(=O)N[C@@H](C)C(=O)N[C@@H](Cc1c[nH]c2ccccc12)C(=O)N[C@@H](CC(C)C)C(=O)N[C@H](C(=O)N[C@@H](CCCCN)C(=O)NCC(=O)NCC(=O)N1CCC[C@H]1C(=O)N[C@@H](CO)C(=O)N[C@@H](CO)C(=O)NCC(=O)N[C@@H](C)C(=O)N1CCC[C@H]1C(=O)N1CCC[C@H]1C(=O)N1CCC[C@H]1C(=O)N[C@@H](CO)C(=O)N[C@@H](CCCCN)C(N)=O)C(C)C [Compound 066] | 50 | – | – | – | – | 8.60 | 43.7 | –
CC[C@H](C)[C@H](NC(=O)[C@H](Cc1ccccc1)NC(=O)[C@H](CC(C)C)NC(=O)[C@H](CCCCN)NC(=O)[C@H](C)NC(=O)[C@H](C)NC(=O)[C@H](CCC(N)=O)NC(=O)[C@H](CCCCN)NC(=O)[C@H](CCC(=O)O)NC(=O)[C@H](CCSC)NC(=O)[C@H](Cc1ccc(O)cc1)NC(=O)[C@@H](NC(=O)[C@H](CO)NC(=O)[C@H](Cc1ccc(O)cc1)NC(=O)[C@H](CC(=O)O)NC(=O)[C@H](CO)NC(=O)[C@@H](NC(=O)[C@H](Cc1ccccc1)NC(=O)[C@@H](NC(=O)CNC(=O)[C@H](CCC(=O)O)NC(=O)C(C)(C)NC(=O)[C@@H](N)Cc1ccc(O)cc1)[C@@H](C)O)[C@@H](C)O)[C@@H](C)CC)C(=O)N[C@@H](CCC(=O)O)C(=O)N[C@@H](Cc1c[nH]c2ccccc12)C(=O)N[C@@H](CC(C)C)C(=O)N[C@@H](CCCCN)C(=O)N[C@@H](CC(N)=O)C(=O)NCC(N)=O [Compounds 026] (H-Y[Aib]EGTFTSDYSIYMEKQAAKLFIEWLKNG-NH2) | 11.9 | 9.42 | 288 | 8.38 | 11.9 | – | 288 | –

Continued, in another order:

GIP Receptor Relative Potency ([2]; Table 3) | pEC50 [1, 3] | GLP-1R Relative Potency ([1]; Table 1) [%] | pEC50 [2, 4] | GIPR Relative Potency ([2]; Table 1) [%] | Structure (SMILES) | pEC50 ([1]; Table 3, CHO hGLP1R cells) | GLP-1 Receptor Relative Potency ([1]; Table 3) | pEC50 ([2]; Table 3, CHO hGIPR cells)
36.8 | – | – | – | – | CC[C@H](C)[C@H](NC(=O)[C@H](Cc1ccccc1)NC(=O)[C@H](CCC(=O)O)NC(=O)[C@H](CCCNC(=N)N)NC(=O)[C@@H](NC(=O)[C@H](C)NC(=O)[C@H](CCC(=O)O)NC(=O)[C@H](CCCCN)NC(=O)[C@H](CCC(=O)O)NC(=O)[C@H](CCSC)NC(=O)[C@H](Cc1ccc(O)cc1)NC(=O)[C@H](CCC(=O)O)NC(=O)[C@H](CO)NC(=O)[C@H](Cc1ccc(O)cc1)NC(=O)[C@H](CC(=O)O)NC(=O)[C@H](CO)NC(=O)[C@@H](NC(=O)[C@H](Cc1ccccc1)NC(=O)[C@@H](NC(=O)CNC(=O)[C@H](CCC(=O)O)NC(=O)C(C)(C)NC(=O)[C@@H](N)Cc1ccc(O)cc1)[C@@H](C)O)[C@@H](C)O)C(C)C)C(=O)N[C@@H](C)C(=O)N[C@@H](Cc1c[nH]c2ccccc12)C(=O)N[C@@H](CC(C)C)C(=O)N[C@H](C(=O)N[C@@H](CCCCN)C(=O)NCC(N)=O)C(C)C [Compound 052-1] (H-Y[Aib]EGTFTSDYSEYMEKEAVREFIAWLVKG-NH2; N-terminus assumed) | 8.60 | – | 9.24
500 | 9.51 | 354 | 10.00 | 500 | CC[C@H](C)[C@H](NC(=O)[C@H](CO)NC(=O)[C@H](Cc1ccc(O)cc1)NC(=O)[C@H](CC(=O)O)NC(=O)[C@H](CO)NC(=O)[C@@H](NC(=O)[C@H](Cc1ccccc1)NC(=O)[C@@H](NC(=O)CNC(=O)[C@H](CCC(=O)O)NC(=O)C(C)(C)NC(=O)[C@@H](N)Cc1ccc(O)cc1)[C@@H](C)O)[C@@H](C)O)C(=O)N[C@@H](Cc1ccc(O)cc1)C(=O)N[C@@H](CCSC)C(=O)N[C@@H](CCC(=O)O)C(=O)N[C@@H](CCCCN)C(=O)N[C@@H](CCC(=O)O)C(=O)N[C@@H](C)C(=O)N[C@H](C(=O)N[C@@H](CCCNC(=N)N)C(=O)N[C@@H](CC(C)C)C(=O)N[C@@H](Cc1ccccc1)C(=O)N[C@H](C(=O)N[C@@H](CCC(=O)O)C(=O)N[C@@H](Cc1c[nH]c2ccccc12)C(=O)N[C@@H](CC(C)C)C(=O)N[C@@H](CCCCN)C(=O)N[C@@H](CC(N)=O)C(=O)NCC(N)=O)[C@@H](C)CC)C(C)C [Compounds 024] (H-Y[Aib]EGTFTSDYSIYMEKEAVRLFIEWLKNG-NH2; N-terminus assumed) | – | 354 | –
33.3 | 9.08 | 131 | 8.82 | 33.3 | CC[C@H](C)[C@H](NC(=O)[C@H](Cc1ccccc1)NC(=O)[C@H](CCC(=O)O)NC(=O)[C@H](CCCCN)NC(=O)[C@H](C)NC(=O)[C@H](C)NC(=O)[C@H](CCC(N)=O)NC(=O)[C@H](CCCCN)NC(=O)[C@H](CCC(=O)O)NC(=O)[C@H](CCSC)NC(=O)[C@H](Cc1ccc(O)cc1)NC(=O)[C@@H](NC(=O)[C@H](CO)NC(=O)[C@H](Cc1ccc(O)cc1)NC(=O)[C@H](CC(=O)O)NC(=O)[C@H](CO)NC(=O)[C@@H](NC(=O)[C@H](Cc1ccccc1)NC(=O)[C@@H](NC(=O)CNC(=O)[C@H](CCC(=O)O)NC(=O)C(C)(C)NC(=O)[C@@H](N)Cc1ccc(O)cc1)[C@@H](C)O)[C@@H](C)O)[C@@H](C)CC)C(=O)N[C@@H](C)C(=O)N[C@@H](Cc1c[nH]c2ccccc12)C(=O)N[C@@H](CC(C)C)C(=O)N[C@H](C(=O)N[C@@H](CCCCN)C(=O)NCC(N)=O)C(C)C [Compounds 025] (H-Y[Aib]EGTFTSDYSIYMEKQAAKEFIAWLVKG-NH2; N-terminus assumed) | – | 131 | –
